Assay results reported in US20050101595A1, “N-containing cycloalkyl-substituted amino-thiazole derivatives and pharmaceutical compositions for inhibiting cell proliferation and methods for their use” (PFIZER INC., priority 2003, published 2005).
pIC50, pKi: −log10 of the molar value. Where a name gives a salt, the structure may show the parent alone. Read-outs that look alike come from different tables or passages of the source.

Experiments:
[1] = target: CDK2/Cyclin A (Homo sapiens, UniProt P24941); test: Inhibition of CDK2/Cyclin A Retinoblastoma Kinase Activity; type: biochemical; conditions: for pKi: apparent Ki, CDK2/proteolyzed cyclin A, Rb fragment substrate, 25 μM ATP
In short: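 Radiometric filter-binding readout of phosphate transfer to an Rb substrate fragment by purified CDK2/truncated cyclin A at 10 or 19 nM. Run at pH 7.4 with 25 μM ATP, 30 °C, 60–75 min, linear rates; background without enzyme subtracted, Ki from competitive-inhibition models.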

[2] = target: human CDK4 and genetically truncated (1-264) cyclin D3 (Homo sapiens, UniProt P11802); test: Inhibition of CDK4/Cyclin D Retinoblastoma Kinase Activity; type: biochemical; conditions: for pKi: apparent Ki, CDK4/truncated cyclin D3, Rb fragment substrate, 25 μM ATP
Sequence of human CDK4 and genetically truncated (1-264) cyclin D3 (P11802 whole entry, the tested form may be a part): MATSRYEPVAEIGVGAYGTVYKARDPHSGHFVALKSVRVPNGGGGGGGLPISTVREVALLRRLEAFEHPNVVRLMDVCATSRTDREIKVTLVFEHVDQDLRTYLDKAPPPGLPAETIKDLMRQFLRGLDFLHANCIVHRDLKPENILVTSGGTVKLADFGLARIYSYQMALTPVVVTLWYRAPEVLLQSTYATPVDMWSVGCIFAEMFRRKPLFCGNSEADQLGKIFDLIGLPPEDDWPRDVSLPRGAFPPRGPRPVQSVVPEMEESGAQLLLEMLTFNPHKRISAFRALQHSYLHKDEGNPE
Sequence of human CDK4 and genetically truncated (1-264) cyclin D3 (P30281 1-264 partner): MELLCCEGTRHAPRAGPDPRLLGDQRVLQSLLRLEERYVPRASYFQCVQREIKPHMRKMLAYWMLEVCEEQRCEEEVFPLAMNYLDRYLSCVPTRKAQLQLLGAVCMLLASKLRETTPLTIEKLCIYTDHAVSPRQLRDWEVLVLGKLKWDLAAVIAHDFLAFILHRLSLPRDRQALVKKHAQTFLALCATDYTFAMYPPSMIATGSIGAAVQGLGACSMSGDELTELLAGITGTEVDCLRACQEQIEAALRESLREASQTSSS
In short: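 Apparent Ki values come from competitive or competitive tight-binding inhibition fits of background-corrected 32P/33P incorporation into His-tagged Rb fragment (386-928), captured on nitrocellulose. Reaction: 5 nM insect-cell-expressed human CDK4 with cyclin D3 (1-264), 25 μM ATP, pH 7.4 HEPES, 2% DMSO, 30° C., 20 min, extended to 60 min for tight-binding inhibitors.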

[3] = system: HCT-116 cell line; test: Inhibition of cell growth, tetrazolium salt (MTT) assay; type: cell-based; conditions: for HCT-116 % Inhibition at 0.25 μM: 0.25 μM compound; for pIC50: HCT-116, 120 h, MTT, three to five days, read-out: HCT-116 IC50
In short: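 McCoy's 5A cultures; 4 h pre-incubation; compound dilutions in 0.5% v/v DMSO; 3–5 d, 37° C, 5% CO2; MTT 0.2 mg/mL final, 4 h; formazan dissolved in DMSO, A540; vs 0.5% DMSO vehicle.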

[4] = Homo sapiens, first HCT-116 column (c4)
[5] = Homo sapiens, second HCT-116 column (c5)

| Structure (SMILES) | pKi [1] | pKi [2] | pIC50 [3, 4] | pIC50 [3, 5] | CDK2 % Inhibition at 0.03 μM ([1]; at 0.03 μM) [%] | CDK4 % Inhibition at 0.03 μM ([2]; at 0.03 μM) [%] | HCT-116 % Inhibition at 0.1 μM ([3]; HCT-116 cells, at 0.1 μM) [%] | HCT-116 5 Inhibition at 0.25 μM ([3]; HCT-116 cells) | other results |
| --- | --- | --- | --- | --- | --- | --- | --- | --- | --- |
| Nc1nc(NC2CCN(C(=O)NC3C[C@H]3c3ccccc3)CC2)sc1C(=O)c1c(F)cccc1F (stereo partly shown) [Example O1] | – | – | – | – | – | – | – | – | inhibition at 0.03 µM ([1]; 0.03 μM compound, Table 2): 30%; inhibition at 0.03 µM ([2]; 0.03 μM compound, Table 2): -4%; inhibition at 0.25 µM ([3]; Homo sapiens, HCT-116, 0.25 μM compound, HCT-116, Table 2, read-out: HCT-116 % Inhibition at 0.25 μM): 0% |
| COc1ccc(C)cc1NC(=O)N1CCC(Nc2nc(N)c(C(=O)c3c(F)cccc3F)s2)CC1 [Example O50] | – | – | – | – | – | – | – | – | CDK2 % Inhibition At 0.03 μM ([1]; 0.03 μM compound, Table 2): 37%; CDK4 % Inhibition at 0.03 μM ([2]; 0.03 μM compound, Table 2): 13%; HCT-116 % Inhibition at 0.25 μM ([3]; HCT-116, Table 2): 62% |
| Nc1nc(NC2CCN(C(=O)CCN3CCCCC3)CC2)sc1C(=O)c1c(F)cccc1F [Example D3, 1-(4-[4-Amino-5-(2,6-difluoro-benzoyl)-thiazol-2-ylamino}-piperidin-1-yl)-3-piperidin-1-yl-propan-1-one] | 6.40 | 7.15 | < 5.30 | – | – | – | – | – | – |
| C[C@@H]1CN(Cc2ccc(S(=O)(=O)N3CCC(Nc4nc(N)c(C(=O)c5c(F)cccc5F)s4)CC3)cc2)C[C@H](C)N1 [Example J10, 1-{4-Amino-2-{1-[4-(3,5-dimethyl-piperazin-1-ylmethyl)-benzenesulfonyl]-piperidin-4-ylamino}-thiazol-5-yl)-1-(2,6-difluoro-phenyl)-methanone Hydrochloride Salt.] | 8.77 | 9.41 | 6.80 | 5.54 | – | – | – | – | – |
| Nc1nc(NC2CCN(S(=O)(=O)c3ccc(CCCN4CCCCC4)nc3)CC2)sc1C(=O)c1c(F)cccc1F [Example I14, 1-(4-Amino-2-{1-[6-(3-piperidin-1-yl-propyl)-pyridine-3-sulfonyl]-piperidin-4-ylamino}-thiazol-5-yl)-1-(2,6-difluoro-phenyl)-methanone Trifluoroacetic Acid Salt] | 8.92 | 9.24 | 6.85 | 6.52 | – | – | – | – | – |
| CCOc1ccccc1C(=O)N1CCC(Nc2nc(N)c(C(=O)c3c(F)cccc3F)s2)CC1 [Example R6] | – | – | – | – | 14 | 42 | 12 | 51 | – |
| CC(C)S(=O)(=O)N1CCC(Nc2nc(N)c(C(=O)c3c(F)cccc3F)s2)CC1 [Example P24] | – | – | – | – | – | – | – | – | CDK2 % Inhibition at 0.03 μM ([1]; 0.03 μM compound, Table 3): 5%; CDK4 % Inhibition at 0.03 μM ([2]; 0.03 μM compound, Table 3): 24%; HCT-116 % Inhibition at 0.1 μM ([3]; 0.1 μM compound, HCT-116, Table 3): 26%; HCT-116 % Inhibition at 0.25 μM ([3]; HCT-116, Table 3): 36% |
| COc1ccc(S(=O)(=O)N2CCC(Nc3nc(N)c(C(=O)c4c(F)cccc4F)s3)CC2)cn1 [Example F22, 1-{4-Amino-2-[1-(6-methoxy-pyridine-3-sulfonyl)-piperidin4-ylamino]-thiazol-5-yl}-1-(2,6-difluoro-phenyl)-methanone] | 9.08 | 8.92 | 7.10 | 6.64 | – | – | – | – | – |
| Cc1cccc(C(=O)N2CCC(Nc3nc(N)c(C(=O)c4c(F)cccc4F)s3)CC2)c1 [Example R140] | – | – | – | – | 38 | 69 | 32 | 78 | – |
| Nc1nc(NC2CCN(S(=O)(=O)c3ccc(C(=O)O)cc3)CC2)sc1C(=O)c1c(F)cccc1F [Example F14, 4-{4-[4-Amino-5-(2,6-difluoro-benzoyl)-thiazol-2-ylamino]-piperidine-1-sulfonyl}-benzoic Acid] | 8.70 | 7.85 | > 5.30 | > 5.30 | – | – | – | – | – |
| Nc1nc(NC2CCN(C(=O)c3ccc4c(c3)OCO4)CC2)sc1C(=O)c1c(F)cccc1F [Example R7] | – | – | – | – | −3 | 29 | 7 | 46 | – |
| Nc1nc(NC2CCN(S(=O)(=O)CCCN3CCSCC3)CC2)sc1C(=O)c1c(F)cccc1F [Example K13, 1-(4-Amino-2-{1-[3-(thiomorpholin-4-yl)propane-1-sulfonyl]-piperidin-4-ylamino}-thiazol-5-yl)-1-(2,6-difluoro-phenyl)-methanone.] | 8.41 | 8.60 | 6.41 | 5.89 | – | – | – | – | – |
| CC(C)=CCCC(C)CC(=O)N1CCC(Nc2nc(N)c(C(=O)c3c(F)cccc3F)s2)CC1 (stereo not shown) [Example R170] | – | – | – | – | 21 | 22 | 0 | 23 | – |
